Reference: patent publication US11685744B2, “CDK inhibitors and their use as pharmaceuticals” (Prelude Therapeutics, Incorporated, priority 2020, dated 2023)
Read-outs that look alike come from different tables or passages of the source.

What was measured:
CDK6/Cyclin D1 = CDK6/Cyclin D1 (Homo sapiens (Human), UniProt Q00534); assay: CDK6/CyclinD1 enzymatic activity assay (TR-FRET); type: biochemical; conditions: ATP 250 μM, read-out: CDK6_D1 IC50
Method: CDK6/CyclinD1 Enzymatic Activity Assay
The inhibitory activity of compounds was evaluated in vitro using TR-FRET assay with white 384-well low volume microplate (Greiner Bio-One). CDK6/Cyclin D1 catalyzed phosphorylation of peptide in the presence and absence of compounds was measured and used in IC50 determination. Recombinant protein complex CDK6/Cyclin D1, expressed from insect cell, was purchased from ProQinase. Testing compounds were dissolved in DMSO at 0.1 mM and tested in 9-dose IC50 mode. The reaction mixture was prepared by mixing CDK6/Cyclin D1 (1 nM final), ULight-4E-BP1 (100 nM final, Perkinelmer, TRF0128-D), and ATP (250 μM final) in assay buffer (20 mM of HEPES pH 7.4, 1 mM of EGTA, 0.05% BSA, 0.005% Tween 20, and 1 mM TCEP). The compound of interest in DMSO was added to each well in 3-fold serial dilution by dispenser (TECAN D300E). After 20 minutes preincubation at room temperature, 0.1 μL MgCl2 (10 mM final) was added to initiate the reaction. Following a 60 minutes incubation at 37° C., the reaction was stopped by addition of 2 μL of quenching buffer consisting of Lance detection buffer (Perkinelmer CR97-100C), 2 nM LANCE Ultra Europium-anti-P-4E-BP1 (Perkinelmer, TRF0216-D), 10 mM EDTA, and incubate at room temperature for additional 60 minutes in dark. The reaction signal was measured by Envision multimode plate reader (PerkinElmer, 2102-0010). IC50 values were determined by fitting the data to the standard 4 parameters with Hill Slope using GraphPad Prism software.

[1] = tested on: MCF7 adenocarcinoma cell line; assay: Cell proliferation studies in MCF7 cells (ATP-Lite, 10 days); type: cell-based; conditions: read-out: PROLIFERATION_CTG_MCF7 IC50
How it was run: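 Cells were seeded at 100 or 200 per well in DMEM with 10% FBS and dosed in quadruplicate over a 9-point 3-fold dilution. Incubation lasted 10 days at 37 °C, with media exchange and re-dosing on day 5. Viability was read by ATP-Lite luminescence and normalised to background and DMSO, giving IC50.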

[2] = Brain-to-plasma ratio (Kp) determination in Sprague-Dawley rats; conditions: male, rat, po, 10 mg/kg
Method: The brain-to-plasma ratio (Kp) was determined in male Sprague-Dawley rats (7-9 weeks old) four hours after a single oral dose. Rats were acclimated and given free access to standard rodent chow and water throughout the entire study. Test articles were formulated as a solution at 0.3, 0.4, 0.5, or 1.0 mg/mL in a vehicle comprised of 10:15:75 (v:v:v) dimethylacetamide (DMA):Solutol HS15:water and delivered orally at a rate of 10 mL/kg to three rats to achieve final doses of 3, 4, 5, or 10 mg/kg, respectively. At 4 hours post-dose, blood samples were collected via jugular vein cannula into tubes containing K2EDTA as the anticoagulant and stored on ice. Blood samples were then centrifuged at 4° C. at 6000 rpm for 5 minutes, and the resulting plasma was placed into tubes and stored frozen at −80° C. until analysis. Whole brain samples were also collected at 4 hours post-dose. The weight of each brain was measured and recorded, and samples were immediately stored on dry ice. Brain samples were then transferred to storage at −80° C. until analysis.
Prior to analysis, brain samples were combined with water (4 mL/1 gram of brain) and homogenized. Prior to injection, plasma and brain homogenate samples and standards were prepared for analysis by precipitation with acetonitrile or 1:1 (v:v) methanol:acetonitrile. Samples were then thoroughly mixed, centrifuged at 4000 rpm for 15 minutes, and the resulting supernatant was transferred for analysis. Test article concentrations in plasma and brain homogenate were then determined by LC-MS/MS and quantified against calibration standards prepared to known concentrations in matched blank (analyte-free) biological matrix. The Kp was then determined by dividing the dilution-corrected brain concentration by the plasma concentration from each rat. A brain density of 1 gram/mL was assumed for all calculations.

CDK4/Cyclin D1 = CDK4/Cyclin D1 (Homo sapiens (Human), UniProt P11802); assay: CDK4/CyclinD1 enzymatic activity assay (TR-FRET); type: biochemical; conditions: ATP 2 mM, read-out: CDK4_D1 IC50
Chain of CDK4/Cyclin D1 (P11802 whole entry): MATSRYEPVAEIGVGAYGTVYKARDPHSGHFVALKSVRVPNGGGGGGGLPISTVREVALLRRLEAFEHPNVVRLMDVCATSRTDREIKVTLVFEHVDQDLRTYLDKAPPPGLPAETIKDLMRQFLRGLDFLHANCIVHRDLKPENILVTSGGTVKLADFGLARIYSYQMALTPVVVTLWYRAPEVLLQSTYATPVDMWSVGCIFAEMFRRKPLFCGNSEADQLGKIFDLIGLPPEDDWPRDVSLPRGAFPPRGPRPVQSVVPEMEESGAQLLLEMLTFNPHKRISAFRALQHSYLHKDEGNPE
Chain of CDK4/Cyclin D1 (P24385 whole entry partner): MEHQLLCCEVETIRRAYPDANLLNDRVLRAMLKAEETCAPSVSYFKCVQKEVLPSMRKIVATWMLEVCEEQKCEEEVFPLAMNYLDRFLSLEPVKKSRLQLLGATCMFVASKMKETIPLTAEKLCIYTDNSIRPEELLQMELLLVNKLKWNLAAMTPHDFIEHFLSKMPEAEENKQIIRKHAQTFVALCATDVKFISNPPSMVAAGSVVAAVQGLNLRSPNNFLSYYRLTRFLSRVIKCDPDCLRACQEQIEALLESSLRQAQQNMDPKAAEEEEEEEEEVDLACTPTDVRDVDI
How it was run: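 Insect-cell CDK4/Cyclin D1 (1 nM) with ULight-4E-BP1 (100 nM) and 2 mM ATP in HEPES pH 7.4 buffer, preincubated 20 min with compound (9-dose, 3-fold dilutions); 10 mM MgCl2 started the reaction, run 60 min at 37 °C. EDTA/Eu-anti-phospho-4E-BP1 TR-FRET detection; IC50 from 4-parameter Hill fit.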

[3] = brain (homogenate) versus plasma

Chain of CDK6/Cyclin D1 (Q00534 whole entry): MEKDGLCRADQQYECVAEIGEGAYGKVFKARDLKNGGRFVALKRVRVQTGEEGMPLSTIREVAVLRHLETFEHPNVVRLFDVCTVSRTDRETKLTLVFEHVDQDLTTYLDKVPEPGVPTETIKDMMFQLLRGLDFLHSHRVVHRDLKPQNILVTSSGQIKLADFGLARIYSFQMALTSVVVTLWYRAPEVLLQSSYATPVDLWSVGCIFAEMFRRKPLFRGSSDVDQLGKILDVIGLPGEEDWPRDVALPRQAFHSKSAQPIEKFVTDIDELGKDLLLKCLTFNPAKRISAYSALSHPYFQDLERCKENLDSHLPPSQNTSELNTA
Chain of CDK6/Cyclin D1 (P24385 whole entry partner): as the sequence (P24385 whole entry partner) above

SMILES	IC50 (CDK6/Cyclin D1)	IC50 ([1]; Homo sapiens, 240 h)	Kp at 4 h [2, 3]	IC50 (CDK4/Cyclin D1)	Kp at 4 h ([2]; brain / plasma)	IC50 [1]
CCN1C2CC1CN(c1ccc(Nc3ncc(F)c(-c4cc5c(=O)n(C)cc(C(C)C)c5s4)n3)nc1)C2 [Example 58, 2-(2-((5-(6-Ethyl-3,6-diazabicyclo[3.1.1]heptan-3-yl)pyridin-2-yl)amino)-5-fluoropyrimidin-4-yl)-7-isopropyl-5-methylthieno[3,2-c]pyridin-4(5H)-one]	0.02 to 0.2 µM	0.02 to 0.2 µM		≤ 0.02 µM		
Cc1c(-c2nc(Nc3ccc(N4CCN(CC(F)(F)F)CC4)cn3)ncc2F)sc2c(C(C)C)cn(C)c(=O)c12 [Example 80, 2-(5-Fluoro-2-((5-(4-(2,2,2-trifluoroethyl)piperazin-1-yl)pyridin-2-yl)amino)pyrimidin-4-yl)-7-isopropyl-3,5-dimethylthieno[3,2-c]pyridin-4(5H)-one]	0.02 to 0.2 µM	0.2 to 2 µM		0.02 to 0.2 µM		
CCN1CC2CC1CN2c1ccc(Nc2ncc(F)c(-c3cc4c(=O)n(C)cc(C(C)C)c4s3)n2)nc1 (stereo not shown) [Example 81, 2-(2-((5-(5-Ethyl-2,5-diazabicyclo[2.2.1]heptan-2-yl)pyridin-2-yl)amino)-5-fluoropyrimidin-4-yl)-7-isopropyl-5-methylthieno[3,2-c]pyridin-4(5H)-one]	≤ 0.02 µM	0.02 to 0.2 µM		≤ 0.02 µM		
[2H]C([2H])([2H])n1cc(C(C)C)c2sc(-c3nc(Nc4ccc(C5CCN(C)CC5)cn4)ncc3F)c(C)c2c1=O [Example 85, 2-(5-Fluoro-2-((5-(1-methylpiperidin-4-yl)pyridin-2-yl)amino)pyrimidin-4-yl)-7-isopropyl-3-methyl-5-(methyl-d3)thieno[3,2-c]pyridin-4(5H)-one]		0.02 to 0.2 µM	> 3	≤ 0.02 µM		
Cc1c(-c2nc(Nc3ccc(N4CC5(C4)CN(C(C)C)C5)cn3)ncc2F)sc2c(C(C)C)cn(C)c(=O)c12 [Example 92, 2-(5-Fluoro-2-((5-(6-isopropyl-2,6-diazaspiro[3.3]heptan-2-yl)pyridin-2-yl)amino)pyrimidin-4-yl)-7-isopropyl-3,5-dimethylthieno[3,2-c]pyridin-4(5H)-one]	≤ 0.02 µM	0.02 to 0.2 µM		≤ 0.02 µM		
Cc1c(-c2nc(Nc3ccc(C4CCNCC4)cn3)ncc2F)sc2c(C(C)C)cn(C)c(=O)c12 [Example 94, 2-(5-Fluoro-2-((5-(piperidin-4-yl)pyridin-2-yl)amino)pyrimidin-4-yl)-7-isopropyl-3,5-dimethylthieno[3,2-c]pyridin-4(5H)-one]	≤ 0.02 µM	0.02 to 0.2 µM		≤ 0.02 µM		
Cc1c(-c2nc(Nc3ccc(C4CN(C)C4)cn3)ncc2F)sc2c1nc(C)n2C(C)C [Example 108, 5-Fluoro-4-(3-isopropyl-2,6-dimethyl-3H-thieno[2,3-d]imidazol-5-yl)-N-(5-(1-methylazetidin-3-yl)pyridin-2-yl)pyrimidin-2-amine]	0.02 to 0.2 µM	0.02 to 0.2 µM		≤ 0.02 µM		
CCN1CC2(C1)CN(c1ccc(Nc3ncc(F)c(-c4cc5c(=O)n(C)nc(C6CN(C(=O)OC(C)(C)C)C6)c5s4)n3)nc1)C2 [Example 109, tert-Butyl 3-(2-(2-((5-(6-ethyl-2,6-diazaspiro[3.3]heptan-2-yl)pyridin-2-yl)amino)-5-fluoropyrimidin-4-yl)-5-methyl-4-oxo-4,5-dihydrothieno[2,3-d]pyridazin-7-yl)azetidine-1-carboxylate]	0.02 to 0.2 µM	0.02 to 0.2 µM		≤ 0.02 µM		
CCN1CCN(c2ccc(Nc3ncc(F)c(-c4sc5c(C(C)C)ccnc5c4C(F)(F)F)n3)nc2)CC1 [Example 121, N-[5-(4-Ethylpiperazin-1-yl)pyridin-2-yl]-5-fluoro-4-[7-propan-2-yl-3-(trifluoromethyl)thieno[3,2-b]pyridin-2-yl]pyrimidin-2-amine]	0.02 to 0.2 µM	0.02 to 0.2 µM		≤ 0.02 µM		

The next lines start with the values.

IC50 (CDK6/Cyclin D1)	IC50 ([1]; Homo sapiens, 240 h)	Kp at 4 h [2, 3]	IC50 (CDK4/Cyclin D1)	Kp at 4 h ([2]; brain / plasma)	IC50 [1]	SMILES
≤ 0.02 µM	0.02 to 0.2 µM	1 to 3	≤ 0.02 µM			Cc1c(-c2nc(Nc3ccc(C4CCCN(C)C4)cn3)ncc2F)sc2c1ncn2C(C)C (single isomer, unassigned) [Example 125, 5-Fluoro-N-[5-[-1-methylpiperidin-3-yl]pyridin-2-yl]-4-(6-methyl-3-propan-2-ylthieno[2,3-d]imidazol-5-yl)pyrimidin-2-amine]
	0.02 to 0.2 µM	1 to 3	≤ 0.02 µM			CCN1CCC(c2ccc(Nc3ncc(F)c(-c4sc5c(nc(C)n5C5CCC5)c4C)n3)nc2)CC1 [Example 8, 4-(3-Cyclobutyl-2,6-dimethyl-3H-thieno[2,3-d]imidazol-5-yl)-N-(5-(1-ethylpiperidin-4-yl)pyridin-2-yl)-5-fluoro-pyrimidin-2-amine]
	0.02 to 0.2 µM		≤ 0.02 µM	< 1		CCN1CC2(C1)CN(c1ccc(Nc3ncc(F)c(-c4cc5nccc(C(C)(C)O)c5s4)n3)nc1)C2 [Example 21, 2-[2-[2-[[5-(6-Ethyl-2,6-diazaspiro[3.3]heptan-2-yl)pyridin-2-yl]amino]-5-fluoropyrimidin-4-yl]thieno[3,2-b]pyridin-7-yl]propan-2-ol]
0.02 to 0.2 µM	0.02 to 0.2 µM		≤ 0.02 µM			CCN1CCN(Cc2ccc(Nc3ncc(F)c(-c4sc5c(C6CCCC6)ccnc5c4Cl)n3)nc2)CC1 [Example 30, 4-(3-Chloro-7-cyclopentylthieno[3,2-b]pyridin-2-yl)-N-[5-[(4-ethylpiperazin-1-yl)methyl]pyridin-2-yl]-5-fluoropyrimidin-2-amine]
≤ 0.02 µM	0.02 to 0.2 µM		≤ 0.02 µM			CCN1CC2(C1)CN(c1ccc(Nc3ncc(F)c(-c4sc5c(nc(C)n5C(C)C)c4C)n3)nn1)C2 [Example 53, 6-(6-Ethyl-2,6-diazaspiro[3.3]heptan-2-yl)-N-(5-fluoro-4-(3-isopropyl-2,6-dimethyl-3H-thieno[2,3-d]imidazol-5-yl)pyrimidin-2-yl)pyridazin-3-amine]
0.02 to 0.2 µM	0.02 to 0.2 µM		≤ 0.02 µM			CCN1CCN(C(=O)c2ccc(Nc3ncc(F)c(-c4cc5c(=O)n(C)cc(C(C)C)c5s4)n3)nc2)CC1 [Example 59, 2-(2-((5-(4-Ethylpiperazine-1-carbonyl)pyridin-2-yl)amino)-5-fluoropyrimidin-4-yl)-7-isopropyl-5-methylthieno[3,2-c]pyridin-4(5H)-one]
≤ 0.02 µM	0.02 to 0.2 µM		≤ 0.02 µM			CCN1CC2(C1)CN(c1ccc(Nc3ncc(F)c(-c4sc5c(c4C)c(=O)ncn5C(C)C)n3)nc1)C2 [Example 62, 6-(2-((5-(6-Ethyl-2,6-diazaspiro[3.3]heptan-2-yl)pyridin-2-yl)amino)-5-fluoropyrimidin-4-yl)-1-isopropyl-5-methylthieno[2,3-d]pyrimidin-4(1H)-one]
≤ 0.02 µM	0.02 to 0.2 µM		≤ 0.02 µM			Cc1c(-c2nc(Nc3ccc(N4CC5(CCN5C)C4)cn3)ncc2F)sc2c1nc(C)n2C(C)C [Example 67, 4-(2,6-Dimethyl-3-propan-2-ylthieno[2,3-d]imidazol-5-yl)-5-fluoro-N-[5-(1-methyl-1,6-diazaspiro[3.3]heptan-6-yl)pyridin-2-yl]pyrimidin-2-amine]
0.02 to 0.2 µM			≤ 0.02 µM		0.02 to 0.2 µM	CCN1CC2(C1)CN(C(=O)c1ccc(Nc3ncc(F)c(-c4cc5nc(C)n(C(C)C)c5s4)n3)nc1)C2 [Example 71, (6-Dthyl-2,6-diazaspiro[3.3]heptan-2-yl)-[6-[[5-fluoro-4-(2-methyl-3-propan-2-ylthieno[2,3-d]imidazol-5-yl)pyrimidin-2-yl]amino]pyridin-3-yl]methanone]
≤ 0.02 µM	0.02 to 0.2 µM		≤ 0.02 µM			Cc1nc2cc(-c3nc(Nc4ccc(N5CC(N(C)C)C5)cn4)ncc3F)sc2n1C(C)C [Example 72, N-[5-[3-(Dimethylamino)azetidin-1-yl]pyridin-2-yl]-5-fluoro-4-(2-methyl-3-propan-2-ylthieno[2,3-d]imidazol-5-yl)pyrimidin-2-amine]
≤ 0.02 µM	≤ 0.02 µM		≤ 0.02 µM			Cc1c(-c2nc(Nc3ccc(N4CCN(C)CC4=O)cn3)ncc2F)sc2c1nc(C)n2C(C)C [Example 75, 1-[6-[[4-(2,6-Dimethyl-3-propan-2-ylthieno[2,3-d]imidazol-5-yl)-5-fluoropyrimidin-2-yl]amino]pyridin-3-yl]-4-methylpiperazin-2-one]
